Columns and labels:
[1] = test system: SMN2 minigene (full length SMN2 minigene mRNA containing SMN2 exon 7); assay: SMN2 minigene mRNA splicing RT-qPCR assay in cultured cells; format: cell-based, human; settings: Homo sapiens, HEK293-H; HEK293H cells stably transfected with SMN2-A minigene; 24 hours; 7-point concentration curve; 1.5-fold relative to vehicle-treated cells; read-out: EC1.5x for production of full length SMN2 mRNA
Outline: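 Full-length SMN2 minigene mRNA (exon 7 included), minigene-specific and not endogenous SMN, quantified by RT-qPCR multiplexed with GAPDH in stably transfected HEK293H cells after 24 h compound exposure at 37° C. Abundance from efficiency-corrected Ct, normalized to GAPDH and vehicle; EC1.5x reported as star bins.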

Smn protein = Smn protein assay in cultured cells (SMN HTRF); format: cell-based, human; settings: 48 hours; for EC1.5x (concentration giving 1.5-fold Smn protein increase): SMA Type 1 patient fibroblast cells (GM03813), 7-point concentration curve, SMN HTRF, concentration producing 1.5 times Smn protein vs DMSO vehicle control, read-out: EC1.5x for Smn protein expression; for maximum fold (Fold) increase of Smn protein: SMA patient fibroblast cells, 7-point concentration data, fold increase relative to vehicle control (SMN HTRF)
Outline: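 Smn in SMA fibroblast lysates, measured by anti-SMN HTRF after 48 h compound exposure; EC1.5x from fold change over vehicle.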

Row | SMILES | EC (1.5-fold) [1] | EC1.5x (concentration giving 1.5-fold Smn protein increase) (Smn protein) | maximum fold (Fold) increase of Smn protein (Smn protein) | melting point
1 | CCN(C)CCOc1ccc2cc(-c3cn4cc(C)nc(C)c4n3)c(=O)oc2c1 [Compound 937, 3-(6,8-dimethylimidazo[1,2-a]pyrazin-2-yl)-7-{2-[ethyl(methyl)amino]ethoxy}-2H-chromen-2-one] | < 0.1 µM | < 300 nM | ***** (fold increase >1.65) | 190 to 196 °C
2 | CCN(CCO)CCOc1ccc2cc(-c3cn4cc(C)nc(C)c4n3)c(=O)oc2c1 [Compound 938, 3-(6,8-dimethylimidazo[1,2-a]pyrazin-2-yl)-7-{2-[ethyl(2-hydroxyethyl)amino]ethoxy}-2H-chromen-2-one] | < 0.1 µM | < 300 nM | ***** (fold increase >1.65) | 165 to 168 °C
3 | Cc1cn2cc(-c3cc4ccc(CCCNC5CCOC5)cc4oc3=O)nc2c(C)n1 (centres unmarked) [Compound 939, 3-(6,8-dimethylimidazo[1,2-a]pyrazin-2-yl)-7-[3-(tetrahydrofuran-3-ylamino)propyl]-2H-chromen-2-one] | < 0.1 µM | < 300 nM | ***** (fold increase >1.65) | 177 to 180 °C
4 | Cc1cn2cc(-c3cc4ccc(OCCN5CC[C@@H](O)C5)cc4oc3=O)nc2c(C)n1 [Compound 941, 3-(6,8-dimethylimidazo[1,2-a]pyrazin-2-yl)-7-{2-[(3R)-3-hydroxypyrrolidin-1-yl]ethoxy}-2H-chromen-2-one] | < 0.1 µM | 1000 to 3000 nM | **** (fold increase between >1.5 and ≤1.65) | 195 to 202 °C
5 | Cc1cn2cc(-c3cc4ccc(N5CC(N6CCCCC6C)C5)cc4oc3=O)nc2c(C)n1 (centres unmarked) [Compound 942, 3-(6,8-dimethylimidazo[1,2-a]pyrazin-2-yl)-7-[3-(2-methylpiperidin-1-yl)azetidin-1-yl]-2H-chromen-2-one] | < 0.1 µM | 1000 to 3000 nM | *** (fold increase between >1.35 and ≤1.5) | 220 to 228 °C
6 | CCN(CC)C1CN(c2ccc3cc(-c4cn5cc(C)nc(C)c5n4)c(=O)oc3c2)C1 [Compound 944, 7-[3-(diethylamino)azetidin-1-yl]-3-(6,8-dimethylimidazo[1,2-a]pyrazin-2-yl)-2H-chromen-2-one] | < 0.1 µM | 300 to 1000 nM | **** (fold increase between >1.5 and ≤1.65) | 218 to 220 °C
7 | Cc1cn2cc(-c3cc4ccc(N5CCC6(CCNC6)C5)cc4oc3=O)nc2c(C)n1 (centres unmarked) [Compound 945, 7-(2,7-diazaspiro[4.4]non-2-yl)-3-(6,8-dimethylimidazo[1,2-a]pyrazin-2-yl)-2H-chromen-2-one] | < 0.1 µM | < 300 nM | ***** (fold increase >1.65) | 190 to 200 °C
8 | Cc1cn2cc(-c3cc4ccc(OCCN[C@H](C)CO)cc4oc3=O)nc2c(C)n1 [Compound 946, 3-(6,8-dimethylimidazo[1,2-a]pyrazin-2-yl)-7-(2-{[(2R)-1-hydroxypropan-2-yl]amino}ethoxy)-2H-chromen-2-one] | < 0.1 µM | < 300 nM | **** (fold increase between >1.5 and ≤1.65) | 185 to 188 °C
9 | Cc1cn2cc(-c3cc4ccc(OCCN[C@@H](C)CO)cc4oc3=O)nc2c(C)n1 [Compound 947, 3-(6,8-dimethylimidazo[1,2-a]pyrazin-2-yl)-7-(2-{[(2S)-1-hydroxypropan-2-yl]amino}ethoxy)-2H-chromen-2-one] | < 0.1 µM | < 300 nM | **** (fold increase between >1.5 and ≤1.65) | 186 to 188 °C
10 | Cc1cn2cc(-c3cc4ccc(C5=CC(C)(C)NC(C)(C)C5)cc4oc3=O)nc2c(C)n1 [Compound 949, 3-(6,8-dimethylimidazo[1,2-a]pyrazin-2-yl)-7-(2,2,6,6-tetramethyl-1,2,3,6-tetrahydropyridin-4-yl)-2H-chromen-2-one] | < 0.1 µM | < 300 nM | ***** (fold increase >1.65) | 188 to 190 °C
11 | Cc1cn2cc(-c3cc4ccc(N5CC[C@H](CN)C5)cc4oc3=O)nc2c(C)n1 [Compound 950, 7-[(3R)-3-(aminomethyl)pyrrolidin-1-yl]-3-(6,8-dimethylimidazo[1,2-a]pyrazin-2-yl)-2H-chromen-2-one] | 0.1 to 0.3 µM | 1000 to 3000 nM | *** (fold increase between >1.35 and ≤1.5) | 196 to 198 °C
12 | Cc1cn2cc(-c3cc4ccc(N5CC(N6CCCCC6)C5)cc4oc3=O)nc2c(C)n1 [Compound 951, 3-(6,8-dimethylimidazo[1,2-a]pyrazin-2-yl)-7-[3-(piperidin-1-yl)azetidin-1-yl]-2H-chromen-2-one] | < 0.1 µM | 1000 to 3000 nM | **** (fold increase between >1.5 and ≤1.65) | 284 to 286 °C
13 | CNCCCCc1ccc2cc(-c3cn4cc(C)nc(C)c4n3)c(=O)oc2c1 [Compound 952, 3-(6,8-dimethylimidazo[1,2-a]pyrazin-2-yl)-7-[4-(methylamino)butyl]-2H-chromen-2-one] | < 0.1 µM | < 300 nM | ***** (fold increase >1.65) | 180 to 184 °C
14 | Cc1cn2cc(-c3cc4ccc(OCCN5CCCCC5)cc4oc3=O)nc2c(C)n1 [Compound 953, 3-(6,8-dimethylimidazo[1,2-a]pyrazin-2-yl)-7-[2-(piperidin-1-yl)ethoxy]-2H-chromen-2-one] | < 0.1 µM | < 300 nM | **** (fold increase between >1.5 and ≤1.65) | 178 to 190 °C
15 | Cc1cn2cc(-c3cc4ccc(OCCNC(C)(C)CO)cc4oc3=O)nc2c(C)n1 [Compound 955, 3-(6,8-dimethylimidazo[1,2-a]pyrazin-2-yl)-7-{2-[(1-hydroxy-2-methylpropan-2-yl)amino]ethoxy}-2H-chromen-2-one] | 0.1 to 0.3 µM |  | *** (fold increase between >1.35 and ≤1.5) | 187 to 191 °C
16 | Cc1cn2cc(-c3cc4ccc(OCCN5CCOCC5)cc4oc3=O)nc2c(C)n1 [Compound 956, 3-(6,8-dimethylimidazo[1,2-a]pyrazin-2-yl)-7-[2-(morpholin-4-yl)ethoxy]-2H-chromen-2-one] | 0.1 to 0.3 µM | 1000 to 3000 nM | ***** (fold increase >1.65) | 175 to 177 °C
17 | Cc1cn2cc(-c3cc4ccc(OCCN5CCC(O)CC5)cc4oc3=O)nc2c(C)n1 [Compound 957, 3-(6,8-dimethylimidazo[1,2-a]pyrazin-2-yl)-7-[2-(4-hydroxypiperidin-1-yl)ethoxy]-2H-chromen-2-one] | < 0.1 µM | 300 to 1000 nM | **** (fold increase between >1.5 and ≤1.65) | 187 to 190 °C
18 | Cc1cn2cc(-c3cc4ccc(OCCNCCO)cc4oc3=O)nc2c(C)n1 [Compound 959, 3-(6,8-dimethylimidazo[1,2-a]pyrazin-2-yl)-7-{2-[(2-hydroxyethyl)amino]ethoxy}-2H-chromen-2-one] | < 0.1 µM | 300 to 1000 nM | *** (fold increase between >1.35 and ≤1.5) | 175 to 177 °C
19 | Cc1cn2cc(-c3cc4ccc(OCCNCC(C)O)cc4oc3=O)nc2c(C)n1 (centres unmarked) [Compound 961, 3-(6,8-dimethylimidazo[1,2-a]pyrazin-2-yl)-7-{2-[(2-hydroxypropyl)amino]ethoxy}-2H-chromen-2-one] | < 0.1 µM | < 300 nM | *** (fold increase between >1.35 and ≤1.5) | 185 to 188 °C
20 | Cc1cn2cc(-c3cc4ccc(N5CCN(CC(C)(C)O)CC5)cc4oc3=O)nc2c(C)n1 [Compound 962, 3-(6,8-dimethylimidazo[1,2-a]pyrazin-2-yl)-7-[4-(2-hydroxy-2-methylpropyl)piperazin-1-yl]-2H-chromen-2-one] | < 0.1 µM | < 300 nM | ***** (fold increase >1.65) | 212 to 214 °C
21 | Cc1cn2cc(-c3cc4ccc(N5CC[C@H](CN(C)C)C5)cc4oc3=O)nc2c(C)n1 [Compound 965, 7-{(3R)-3-[(dimethylamino)methyl]pyrrolidin-1-yl}-3-(6,8-dimethylimidazo[1,2-a]pyrazin-2-yl)-2H-chromen-2-one] | < 0.1 µM | < 300 nM | *** (fold increase between >1.35 and ≤1.5) | 206 to 208 °C

From patent USRE47689E1, “Compounds for treating spinal muscular atrophy” (PTC Therapeutics, Inc., priority 2011, dated 2019)
